Test results published in PubChem BioAssay (NCI).
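Growth conditions: 96-well plates. Treatment: test compound, 48 hours, 5 concentrations. Analysis: linear interpolation between bracketing concentrations; unreached endpoints set to highest concentration. GI50 marks 50% less growth. Definition used: TGI = concentration required for complete inhibition of growth.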

How the values were obtained:
Test in all cases: NCI anticancer screen, dose series, 48 h
[1] = system: UACC-62 melanoma
[2] = system: BT-549 breast
[3] = system: HOP-92 NSCLC
[4] = system: MDA-MB-231 breast
[5] = system: HCT-116 colon
[6] = system: SNB-75 CNS
[7] = system: HT29 colon
[8] = system: SK-MEL-28 melanoma
[9] = system: UACC-257 melanoma
[10] = system: NCI-H226 lung
[11] = system: MDA-MB-435
[12] = system: SF-295 CNS
[13] = system: ACHN renal
[14] = system: OVCAR-4 ovarian
[15] = system: HS 578T breast
[16] = system: SW-620 colon
[17] = system: CCRF-CEM leukemia
[18] = system: SK-MEL-5 melanoma
[19] = system: HOP-62 NSCLC
[20] = system: SNB-19 CNS
[21] = system: HCC-2998 colon
[22] = system: U251 CNS
[23] = system: SR leukemia
[24] = system: RXF 393 renal
[25] = system: NCI-H522 lung
[26] = system: TK-10 renal
[27] = system: SF-539 CNS
[28] = system: SK-MEL-2 melanoma
[29] = system: PC-3 prostate
[30] = system: NCI/ADR-RES ovarian
[31] = system: M14 melanoma
[32] = system: MALME-3M melanoma
[33] = system: UO-31 renal
[34] = system: A498 renal
[35] = system: RPMI-8226 leukemia
[36] = system: MCF7 breast
[37] = system: DU-145 prostate
[38] = system: COLO 205 colon
[39] = system: K-562 leukemia
[40] = system: SF-268 CNS
[41] = system: IGROV1 ovarian
[42] = system: HCT-15 colon
[43] = system: 786-0 renal
[44] = system: CAKI-1 renal
[45] = system: KM12 colon
[46] = system: A549 NSCLC
[47] = system: EKVX NSCLC
[48] = system: OVCAR-8 ovarian
[49] = system: NCI-H460 lung
[50] = system: SN12C renal
[51] = system: OVCAR-5 ovarian
[52] = system: LOX IMVI melanoma
[53] = system: NCI-H23 lung
[54] = system: MOLT-4 leukemia
[55] = system: SK-OV-3 ovarian
[56] = system: T-47D breast
[57] = system: HL-60(TB) leukemia
[58] = system: OVCAR-3 ovarian

SMILES: O=C(CSC(c1ccccc1)c1ccccc1)N/N=C/c1ccccc1Cl
- GI50 [1]: 14.7 µM
- TGI [1]: > 63.5 µM
- GI50 [2]: 2.75 µM
- TGI [2]: 17 µM
- GI50 [3]: 7.7 µM
- TGI [3]: 37.2 µM
- GI50 [4]: 1.46 µM
- TGI [4]: 11.5 µM
- GI50 [5]: 14 µM
- TGI [5]: > 54.6 µM
- GI50 [6]: 7.6 µM
- TGI [6]: 30 µM
- GI50 [7]: > 63.2 µM
- TGI [7]: > 100 µM
- GI50 [8]: 46.1 µM
- TGI [8]: > 100 µM
- GI50 [9]: 7.05 µM
- TGI [9]: 63.8 µM
- GI50 [10]: > 33 µM
- TGI [10]: > 68.2 µM
- GI50 [11]: 49.6 µM
- TGI [11]: > 100 µM
- GI50 [12]: 15.9 µM
- TGI [12]: > 68.4 µM
- GI50 [13]: 2.18 µM
- TGI [13]: 25.2 µM
- GI50 [14]: 11.3 µM
- TGI [14]: 77.2 µM
- GI50 [15]: 9.64 µM
- TGI [15]: > 56.9 µM
- GI50 [16]: 34.7 µM
- TGI [16]: > 100 µM
- GI50 [17]: 17.4 µM
- TGI [17]: 43.2 µM
- GI50 [18]: 21 µM
- TGI [18]: 47.2 µM
- GI50 [19]: 22.7 µM
- TGI [19]: > 76.8 µM
- GI50 [20]: 43.9 µM
- TGI [20]: > 100 µM
- GI50 [21]: 6.9 µM
- TGI [21]: > 75 µM
- GI50 [22]: 25.8 µM
- TGI [22]: > 58.4 µM
- GI50 [23]: 9.48 µM
- TGI [23]: 26.7 µM
- GI50 [24]: 10.2 µM
- TGI [24]: 55.9 µM
- GI50 [25]: 30.2 µM
- TGI [25]: > 100 µM
- GI50 [26]: 14.5 µM
- TGI [26]: 65.3 µM
- GI50 [27]: 29 µM
- TGI [27]: > 90.2 µM
- GI50 [28]: > 62.5 µM
- TGI [28]: > 100 µM
- GI50 [29]: 14.1 µM
- TGI [29]: 70.1 µM
- GI50 [30]: 13.6 µM
- TGI [30]: > 74.6 µM
- GI50 [31]: 36.8 µM
- TGI [31]: > 100 µM
- GI50 [32]: 6.28 µM
- TGI [32]: 42.5 µM
- GI50 [33]: 30.9 µM
- TGI [33]: > 100 µM
- GI50 [34]: 7.2 µM
- TGI [34]: 59.9 µM
- GI50 [35]: 8.73 µM
- TGI [35]: > 40.6 µM
- GI50 [36]: 11.2 µM
- TGI [36]: > 52.8 µM
- GI50 [37]: 50.6 µM
- TGI [37]: > 100 µM
- GI50 [38]: > 71.8 µM
- TGI [38]: > 100 µM
- GI50 [39]: 10.2 µM
- TGI [39]: 46.8 µM
- GI50 [40]: 25.5 µM
- TGI [40]: 78.6 µM
- GI50 [41]: 8.07 µM
- TGI [41]: > 55.6 µM
- GI50 [42]: 8.36 µM
- TGI [42]: > 51 µM
- GI50 [43]: 19.8 µM
- TGI [43]: 65.5 µM
- GI50 [44]: 37.7 µM
- TGI [44]: > 100 µM
- GI50 [45]: 27.1 µM
- TGI [45]: 88.8 µM
- GI50 [46]: 13.6 µM
- TGI [46]: > 57.3 µM
- GI50 [47]: 2.75 µM
- TGI [47]: > 34.1 µM
- GI50 [48]: 17.9 µM
- TGI [48]: > 79.4 µM
- GI50 [49]: 34 µM
- TGI [49]: > 63.2 µM
- GI50 [50]: 2.66 µM
- TGI [50]: 11.8 µM
- GI50 [51]: 10.7 µM
- TGI [51]: > 73.2 µM
- GI50 [52]: 31.1 µM
- TGI [52]: > 100 µM
- GI50 [53]: 12.8 µM
- TGI [53]: 61.6 µM
- GI50 [54]: 6.33 µM
- TGI [54]: 40.2 µM
- GI50 [55]: > 100 µM
- TGI [55]: > 100 µM
- GI50 [56]: > 100 µM
- TGI [56]: > 100 µM
- TGI [57]: 8.46 µM
- GI50 [58]: 15.6 µM
- TGI [58]: 57.3 µM
